Test system: 276233-004-R-J1-PDC KRAS spheroids with HUVEC/MSC, viability
Assay: Anticancer human tumor 276233-004-R-J1-PDC patient-derived colon adenocarcinoma cell line growth inhibition [KRAS2]
Details: for viability, T/C: stronger effect = lower value
Method in brief: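 Combination screen of spheroid viability in tumor-cell co-cultures with endothelial (HUVEC) and mesenchymal stem cell stroma. Each agent was tested in half-log dilutions, topping at clinical Cmax or at 10 microM without a known Cmax.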

[1] = curve of first compound, second compound 0.1 µM
[2] = curve of first compound, second compound 0.316 µM
[3] = curve of first compound, second compound 1 µM
[4] = curve of first compound, second compound 3.16 µM
[5] = curve of first compound, second compound 10 µM
[6] = second compound 0.1 µM, first compound 0.00316 µM
[7] = second compound 0.1 µM, first compound 0.01 µM
[8] = second compound 0.1 µM, first compound 0.0316 µM
[9] = second compound 0.1 µM, first compound 0.1 µM
[10] = second compound 0.316 µM, first compound 0.00316 µM
[11] = second compound 0.316 µM, first compound 0.01 µM
[12] = second compound 0.316 µM, first compound 0.0316 µM
[13] = second compound 0.316 µM, first compound 0.1 µM
[14] = second compound 1 µM, first compound 0.00316 µM
[15] = second compound 1 µM, first compound 0.01 µM
[16] = second compound 1 µM, first compound 0.0316 µM
[17] = second compound 1 µM, first compound 0.1 µM
[18] = second compound 3.16 µM, first compound 0.00316 µM
[19] = second compound 3.16 µM, first compound 0.01 µM
[20] = second compound 3.16 µM, first compound 0.0316 µM
[21] = second compound 3.16 µM, first compound 0.1 µM
[22] = second compound 10 µM, first compound 0.00316 µM
[23] = second compound 10 µM, first compound 0.01 µM
[24] = second compound 10 µM, first compound 0.0316 µM
[25] = second compound 10 µM, first compound 0.1 µM
[26] = second compound 0.1 µM, first compound 0.316 µM
[27] = second compound 0.1 µM, first compound 1 µM
[28] = second compound 0.316 µM, first compound 0.316 µM
[29] = second compound 0.316 µM, first compound 1 µM
[30] = second compound 1 µM, first compound 0.316 µM
[31] = second compound 1 µM, first compound 1 µM
[32] = second compound 3.16 µM, first compound 0.316 µM
[33] = second compound 3.16 µM, first compound 1 µM
[34] = second compound 10 µM, first compound 0.316 µM
[35] = second compound 10 µM, first compound 1 µM
[36] = second compound 0.1 µM, first compound 3.16 µM
[37] = second compound 0.1 µM, first compound 10 µM
[38] = second compound 0.316 µM, first compound 3.16 µM
[39] = second compound 0.316 µM, first compound 10 µM
[40] = second compound 1 µM, first compound 3.16 µM
[41] = second compound 1 µM, first compound 10 µM
[42] = second compound 3.16 µM, first compound 3.16 µM
[43] = second compound 3.16 µM, first compound 10 µM
[44] = second compound 10 µM, first compound 3.16 µM
[45] = second compound 10 µM, first compound 10 µM
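Further: cells exposed to agents for seven days before viability read.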
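Wherever viability, T/C is given: 100% = DMSO vehicle control wells and lower values mean fewer viable cells.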

Row | Structure (SMILES) | IC50 [1] [µM] | IC50 [2] [µM] | IC50 [3] [µM] | IC50 [4] [µM] | IC50 [5] [µM] | viability, T/C [8] [%] | viability, T/C [9] [%] | viability, T/C [12] [%] | viability, T/C [13] [%] | viability, T/C [16] [%] | viability, T/C [17] [%] | viability, T/C [20] [%] | viability, T/C [21] [%] | viability, T/C [24] [%] | viability, T/C [25] [%] | viability, T/C [26] [%] | viability, T/C [27] [%] | viability, T/C [28] [%] | viability, T/C [29] [%] | viability, T/C [30] [%] | further results
1 | CN(C)C/C=C/C(=O)Nc1cc2c(Nc3ccc(F)c(Cl)c3)ncnc2cc1O[C@H]1CCOC1 |  |  |  |  |  |  |  |  |  |  |  |  |  |  |  |  |  |  |  |  | viability, T/C (compound 0.000316 µM): 98.5% [middle of 5 runs]; viability, T/C (compound 0.001 µM): 92.7% [middle of 5 runs]; viability, T/C (compound 0.00316 µM): 90.8% [middle of 5 runs]; viability, T/C (compound 0.01 µM): 95.8% [middle of 5 runs]; viability, T/C (compound 0.0316 µM): 97.7% [middle of 5 runs]; viability, T/C (compound 0.1 µM): 90% [middle of 5 runs]; IC50 (curve of compound): > 0.1 µM
2 | CC(C)n1nc(-c2ccc3oc(N)nc3c2)c2c(N)ncnc21 + CNCc1ccccc1-c1csc(C(C)Nc2nc(C)nc3cc(OC)c(OC)cc23)c1 | 0.0428 | 0.0901 | 0.00683 | < 0.000316 | < 0.000316 | 53.2 | 44.4 | 45 | 54.5 | 43.2 | 51.6 | 1.9 | 0.88 | 0.21 | 0.37 |  |  |  |  |  | viability, T/C (second compound 0.1 µM, first compound 0.000316 µM): 88.7%; viability, T/C (second compound 0.1 µM, first compound 0.001 µM): 76.2%; viability, T/C [6]: 66.1%; viability, T/C [7]: 59.5%; viability, T/C (second compound 0.316 µM, first compound 0.000316 µM): 82.3%; viability, T/C (second compound 0.316 µM, first compound 0.001 µM): 70.7%; viability, T/C [10]: 66.2%; viability, T/C [11]: 55.5%; viability, T/C (second compound 1 µM, first compound 0.000316 µM): 57.9%; viability, T/C (second compound 1 µM, first compound 0.001 µM): 63.7%; viability, T/C [14]: 60.5%; viability, T/C [15]: 39.6%; viability, T/C (second compound 3.16 µM, first compound 0.000316 µM): 0.56%; viability, T/C (second compound 3.16 µM, first compound 0.001 µM): 0.43%; viability, T/C [18]: 0.72%; viability, T/C [19]: 0.43%; viability, T/C (second compound 10 µM, first compound 0.000316 µM): 0.94%; viability, T/C (second compound 10 µM, first compound 0.001 µM): 0.17%; viability, T/C [22]: 1.02%; viability, T/C [23]: 0.26%
3 | CCN1CCN(Cc2ccc(Nc3ncc(F)c(-c4cc(F)c5nc(C)n(C(C)C)c5c4)n3)nc2)CC1 + C=CC(=O)N1CCN(c2nc(=O)n(-c3c(C)ccnc3C(C)C)c3nc(-c4c(O)cccc4F)c(F)cc23)C(C)C1 | > 1 | > 1 | > 1 | > 1 | > 1 | 83.5 | 98.2 | 82.4 | 81.8 | 93.7 | 88.8 | 91.2 | 80.2 | 69.7 | 70.3 | 88.1 | 106 | 101 | 125 | 110 | viability, T/C [6]: 85.7%; viability, T/C [7]: 105%; viability, T/C [10]: 100%; viability, T/C [11]: 78.8%; viability, T/C [14]: 95%; viability, T/C [15]: 118%; viability, T/C [31]: 101%; viability, T/C [18]: 92.7%; viability, T/C [19]: 101%; viability, T/C [32]: 74.2%; viability, T/C [33]: 119%; viability, T/C [22]: 62.9%; viability, T/C [23]: 68.2%; viability, T/C [34]: 87.1%; viability, T/C [35]: 65.4%
4 | CC1OCC2(CCN(c3cnc(Sc4ccnc(N)c4Cl)c(N)n3)CC2)C1N (configuration not stated) + C=CC(=O)N1CCN(c2nc(=O)n(-c3c(C)ccnc3C(C)C)c3nc(-c4c(O)cccc4F)c(F)cc23)C(C)C1 | > 10 | > 10 | > 10 | > 10 | > 10 | 93.7 | 85.8 | 88.7 | 103 | 94.7 | 97.7 | 98.6 | 96.4 | 78.4 | 82.4 | 82.3 | 83.7 | 81.9 | 85.9 | 76.2 | viability, T/C [36]: 71.6%; viability, T/C [37]: 69.9%; viability, T/C [38]: 67.2%; viability, T/C [39]: 68%; viability, T/C [31]: 87.4%; viability, T/C [40]: 74.2%; viability, T/C [41]: 55.8%; viability, T/C [32]: 88.3%; viability, T/C [33]: 81.8%; viability, T/C [42]: 63.1%; viability, T/C [43]: 58%; viability, T/C [34]: 63.9%; viability, T/C [35]: 58.3%; viability, T/C [44]: 68.4%; viability, T/C [45]: 71.8%
5 | COC(=O)c1ccc2c(C(=Nc3ccc(N(C)C(=O)CN4CCN(C)CC4)cc3)c3ccccc3)c(O)[nH]c2c1 + CNCc1ccccc1-c1csc(C(C)Nc2nc(C)nc3cc(OC)c(OC)cc23)c1 | > 10 | > 10 | 1.14 | < 0.0316 | < 0.0316 | 95.9 | 80.5 | 95.5 | 91.7 | 59.4 | 58.5 | 2.33 | 4.5 | 3.64 | 3.36 | 87.7 | 70.1 | 71.4 | 74.5 | 56.5 | viability, T/C [36]: 87.7%; viability, T/C [37]: 70.1%; viability, T/C [38]: 70.4%; viability, T/C [39]: 74.5%; viability, T/C [31]: 54.6%; viability, T/C [40]: 12.1%; viability, T/C [41]: 14.6%; viability, T/C [32]: 7.73%; viability, T/C [33]: 3.3%; viability, T/C [42]: 9.99%; viability, T/C [43]: 5.4%; viability, T/C [34]: 4.73%; viability, T/C [35]: 6.01%; viability, T/C [44]: 1.8%; viability, T/C [45]: 0.53%

— PubChem BioAssay AID1963873 (Molecular Pharmacology Branch, DTP, NCI, 2024)
